Biological target: recombinant human CCR5 receptor (Homo sapiens, UniProt P51681)
Assay: in vitro radioligand binding assay, inhibition of MIP-1α binding (scintillation proximity)
Conditions: displacement of 0.1 nM iodinated MIP-1α; membranes from Chinese hamster ovary cells expressing CCR5; negative log10 of IC50 (M); average if tested more than once
Experimental: The ability of compounds to inhibit the binding of MIP-1α was assessed by an in vitro radioligand binding assay. Membranes were prepared from Chinese hamster ovary cells which expressed the recombinant human CCR5 receptor. These membranes were incubated with 0.1 nM iodinated MIP-1α, scintillation proximity beads and various concentrations of the compounds of the invention in 96-well plates. The amount of iodinated MP-1α bound to the receptor was determined by scintillation counting. Competition curves were obtained for compounds and the concentration of compound which displaced 50% of bound iodinated MIP-1α was calculated (IC50).
In Table III the results are presented as Pic50 values. […] If a compound was tested more than once then the data below is an average of the probative tests results.

Sequence of recombinant human CCR5 receptor (P51681 whole entry): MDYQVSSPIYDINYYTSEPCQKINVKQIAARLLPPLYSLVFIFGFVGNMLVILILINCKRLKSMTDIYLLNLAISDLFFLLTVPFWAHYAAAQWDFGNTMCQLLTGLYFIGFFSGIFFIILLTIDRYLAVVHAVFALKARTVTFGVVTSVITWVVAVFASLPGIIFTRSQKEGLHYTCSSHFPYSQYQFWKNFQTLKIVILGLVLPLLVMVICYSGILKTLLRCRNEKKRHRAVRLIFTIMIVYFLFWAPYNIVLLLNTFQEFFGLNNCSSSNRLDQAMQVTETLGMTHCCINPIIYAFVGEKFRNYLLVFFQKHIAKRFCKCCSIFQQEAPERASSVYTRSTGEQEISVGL

Row | SMILES | IC50 [M]
1 | CS(=O)(=O)c1ccc([C@@H](CCN2CCC(n3cnc4cc(S(C)(=O)=O)ccc43)CC2)c2cccc(F)c2)cc1 [Compound No. 1, (R)-1-{1-[3-(3-fluoro-phenyl)-3-(4-methanesulfonyl-phenyl)-propyl]-piperidin-4-yl}-5-methanesulfonyl-1H-benzoimidazole] | 1e-09
2 | Cc1nnc(C(C)C)n1C1CCN(CC[C@H](c2ccc(S(C)(=O)=O)cc2)c2cccc(F)c2)CC1 [Compound No. 2] | 3.98e-08
3 | CS(=O)(=O)c1ccc(Cc2noc(C3CCN(CC[C@@H](c4ccccc4)c4ccc(S(C)(=O)=O)cc4)CC3)n2)cc1 [Compound No. 3] | 1.26e-09
4 | CS(=O)(=O)c1ccc([C@@H](CCN2CCC(c3nc(Cc4ccccc4)no3)CC2)c2ccccc2)cc1 [Compound No. 4] | 1.58e-08
5 | CS(=O)(=O)c1ccc([C@@H](CCN2CCC(n3cnc4cc(S(C)(=O)=O)ccc43)CC2)c2ccccc2)cc1 [Compound No. 5] | 3.98e-09
6 | CSc1ccc(Cc2noc(C3CCN(CCC(c4ccccc4)c4ccc(S(C)(=O)=O)cc4)CC3)n2)cc1 (stereo not shown) [Compound No. 6] | 6.31e-08
7 | CS(=O)(=O)c1ccc([C@@H](CCN2CCC(n3cnc4cc(S(C)(=O)=O)ccc43)CC2)c2ccsc2)cc1 [Compound No. 7] | 1e-08
8 | CS(=O)(=O)c1ccc([C@@H](CCN2CCC(n3cnc4cc(S(C)(=O)=O)ccc43)CC2)c2cccs2)cc1 [Compound No. 8] | 1e-08
9 | CS(=O)(=O)c1ccc([C@@H](CCN2CCC(n3cnc4cc(S(C)(=O)=O)ccc43)CC2)c2ccc(Cl)s2)cc1 [Compound No. 9] | 2e-08
10 | CS(=O)(=O)c1ccc([C@@H](CCN2CCC(n3cnc4cc(S(C)(=O)=O)ccc43)CC2)c2cc(Cl)cs2)cc1 [Compound No. 10] | 2e-08
11 | CS(=O)(=O)c1ccc([C@@H](CCN2CCC(n3cnc4cc(S(C)(=O)=O)ccc43)CC2)c2cc(F)cc(F)c2)cc1 [Compound No. 11] | 1e-09
12 | Cc1nnc(C(C)C)n1C1CCN(CC[C@H](c2ccc(S(C)(=O)=O)cc2)c2cc(F)cc(F)c2)CC1 [Compound No. 12] | 2e-08
13 | Cc1noc(C2CCN(CC[C@@H](c3ccccc3)c3ccc(S(C)(=O)=O)cc3)CC2)n1 [Compound No. 13] | 1.58e-07
